Measured values taken from patent publication US20260240940A1, “REGULATING DISEASE OR DISORDER CHARACTERIZED BY ESOPHAGEAL EPITHELIAL PROLIFERATION THROUGH SECRETED FRIZZLED-RELATED PROTEIN 1 (SFRP1)” (The Regents of the University of Michigan, priority 2023, published 2026).

Tests used:
EPC2-ALI cells [1] = assay: qPCR mRNA expression of EoE proliferation and inflammatory genes in EPC2-ALI; type: cell-based, human; conditions: in the presence of SD-36
Description: (§1) EPC2-ALI culture—hTERT immortalized human esophageal epithelial keratinocytes (hTERT-EPC2) were cultured under air-liquid-interface conditions as described 9, 41. In brief, EPC2-hTERT cells were seeded onto permeable (0.4 μm) transwell support (Corning Incorporated, Corning, NY, USA) and grown to confluence while fully submerged in low-calcium ([Ca2+]=0.09 mM) keratinocyte serum-free media (K-SFM) (Life Technologies; Carlsbad, CA). Epithelial differentiation was induced by culturing submerged cell monolayers in high-calcium K-SFM ([Ca2+]=1.8 mM) for 4 days (day 3 to 7). Cells were then exposed for 5 days (day 7 to 12) at ALI by removing cell media from the top chamber, to induce stratification.
Quantitative PCR—RNA was extracted from EPC2-ALI cells by using the Quick-RNA Microprep Kit (Zymo Research Corporation) according to the manufacturer's protocol. Purified RNA (500 ng) was DNase treated and reverse transcribed to cDNA by using Superscript II RNase H Reverse Transcriptase (Thermo Fisher Scientific, Rockford, Ill), according to the manufacturer's instructions. cDNA for ANO1, CAPN14, CCL26, TP63, SFRP1, STAT3 and hypoxanthine phosphoribosyltransferase (HPRT) was quantified by using real-time PCR with the IQ SYBR Green Supermix (Bio-Rad Laboratories, Hercules, Calif) with the CFX96 Touch Real-Time PCR Detection System (Bio-Rad Laboratories). Quantitative PCR (qPCR) analyses were performed by using Bio-Rad CFX Manager Software (version 3.1; Bio-Rad Laboratories), and the results were normalized with HPRT amplified from the same cDNA mix and expressed as fold induction (2^-(ΔΔCT). Primers used for amplification were: […]

EPC2-ALI cells [2] = assay: Quantification of Ki67-positive EPC2-ALI cells; type: cell-based, human; conditions: for Ki67+ EPC2-ALI cells under IL-13-stimulation: compared to IL-13 alone; for Ki67+ EPC2-ALI cells, treatment alone: without IL-13, compared to steady-state (Vehicle)
Description: as §1
Quantification of Ki67-positive EPC2-ALI cells—EPC2-ALI cells were cultured in the presence or absence of their respective stimulations for 48 hours. For immunofluorescence (IF) staining, formalin- or paraformaldehyde-fixed, paraffin-embedded transwell sections were sectioned, mounted on slides, and deparaffinized by using standard histologic procedures. Slides were then permeabilized in Tris-EDTA (1 mmol/L, pH 9.0) with 0.1% Tween-20, and antigen exposure was performed at 125° C. for 30 seconds in a decloaking chamber by using a pressure cooker. Slides were then blocked by 10% normal donkey serum for 1 hour, followed by overnight incubation of primary antibodies diluted in 10% normal donkey serum at a final concentration of 1 μg/mL: anti-Ki67 (1:1000; clone: SolA15; Invitrogen), slides were then washed and incubated with secondary antibody at RT for 1 hour. Slides were mounted with 4′-6-diamidino-2-phenylindole dihydrochloride Fluoromount-G (SouthernBiotech, Birmingham, Ala) mounting solution. Fluorescent imaging was performed with the Zeiss Apotome fluorescent microscope (Carl Zeiss Meditec, Dublin, Calif) using Nikon Elements software. Ki67+ cells were quantified as the number of Ki67+-labeled cells per total linear length of filter-attached EPC2-ALI cells using FIJI ImageJ. Three filters per condition from 3 individual experiments were quantitated.

STAT3 = molecular target: T1, STAT3 (Homo sapiens, UniProt P40763); assay: Western blot of EPC2-ALI for total and phosphorylated STAT3; type: cell-based; conditions: SD-36 10 uM
T1 construct: endogenous in cells; host or cells: hTERT-EPC2 human esophageal epithelial keratinocytes at air-liquid interface (EPC2-ALI)
Description: as §1
Western blot—EPC2 ALI cells and primary esophageal cells were lysed following stimulation, using a protein extraction reagent (10% Glycerol, 20 mM Tris HCl pH7, 137 mM NaCl, 2 mM EDTA, 1% NP-40 in H2O) with Halt™ protease inhibitor cocktail (Thermo Fisher Scientific Incorporated; Rockford, IL, USA) and PhosSTOP phosphatase inhibitor cocktail tablet (Roche Diagnostics; Mannheim, Germany). […] of protein extract were separated on a 4%-12% Bis-Tris gel and transferred to a nitrocellulose membrane (Life Technologies; Carlsbad, CA). […]

IL4Rα chain = molecular target: T2, IL4Rα chain (Homo sapiens, UniProt P24394); conditions: adults with active EoE, weekly subcutaneous injections; cited from earlier work
T2 construct: adults with active EoE who received weekly subcutaneous injections of dupilumab; host or cells: human patients (in vivo)

IL-13 = molecular target: T3, IL-13 (Homo sapiens, UniProt P35225); conditions: cited from earlier work
T3 construct: Treatment of adult EoE patients with RPC4046, a recombinant humanized monoclonal antibody against IL-13 improves histologic and endoscopic outcomes; host or cells: human patients (in vivo)
T3 sequence (P35225 25-146): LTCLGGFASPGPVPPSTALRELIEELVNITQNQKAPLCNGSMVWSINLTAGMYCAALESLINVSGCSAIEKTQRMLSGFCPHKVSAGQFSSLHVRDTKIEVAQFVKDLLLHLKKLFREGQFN

T1 sequence (P40763 whole entry): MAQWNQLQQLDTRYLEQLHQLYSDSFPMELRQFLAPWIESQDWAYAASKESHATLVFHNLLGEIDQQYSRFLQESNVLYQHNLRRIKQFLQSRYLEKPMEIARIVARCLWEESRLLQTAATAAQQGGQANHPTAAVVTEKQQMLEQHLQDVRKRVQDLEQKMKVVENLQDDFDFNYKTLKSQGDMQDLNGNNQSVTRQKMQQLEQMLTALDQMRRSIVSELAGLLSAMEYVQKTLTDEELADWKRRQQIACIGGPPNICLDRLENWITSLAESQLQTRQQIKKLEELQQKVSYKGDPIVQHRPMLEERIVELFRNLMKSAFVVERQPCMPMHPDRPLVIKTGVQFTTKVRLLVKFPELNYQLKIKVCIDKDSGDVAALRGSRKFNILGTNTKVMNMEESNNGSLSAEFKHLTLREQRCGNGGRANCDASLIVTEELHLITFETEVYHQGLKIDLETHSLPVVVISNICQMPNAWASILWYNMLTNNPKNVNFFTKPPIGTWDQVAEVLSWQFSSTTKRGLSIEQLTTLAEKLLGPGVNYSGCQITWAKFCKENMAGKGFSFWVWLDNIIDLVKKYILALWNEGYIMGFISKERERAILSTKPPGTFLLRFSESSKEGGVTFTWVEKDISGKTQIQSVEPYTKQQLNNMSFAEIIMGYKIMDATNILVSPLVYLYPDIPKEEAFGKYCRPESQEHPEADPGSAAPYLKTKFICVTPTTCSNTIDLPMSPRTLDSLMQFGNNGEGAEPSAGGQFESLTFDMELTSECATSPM

NC(=O)CC[C@H](NC(=O)[C@@H]1CC[C@@H]2CCN(C(=O)CCCCCC#Cc3cccc4c3CN(C3CCC(=O)NC3=O)C4=O)C[C@H](NC(=O)c3cc4cc(C(F)(F)P(=O)(O)O)ccc4[nH]3)C(=O)N21)C(=O)NC(c1ccccc1)c1ccccc1 (stereo partly drawn) [SD-36]
IL-13-induced mRNA expression of ANO1 (EPC2-ALI cells [1]): abolished | IL-13-induced mRNA expression of TP63 (EPC2-ALI cells [1]): abolished | IL-13 induction of canonical EoE inflammatory genes (CCL26, SLC9A3, CAPN14) mRNA (EPC2-ALI cells [1]): not significantly inhibited | IL-13-induced increase in EPC2-ALI Ki-67+ cells (EPC2-ALI cells [2]; SD-36 10 uM, IL-13 100 ng/mL, 48 hours): attenuated | IL-13 induced phosphorylation of STAT3 Y705 and Y727 residues (STAT3; IL-13 100 ng/mL): total loss | degradation of STAT3 (total STAT3 protein) (STAT3; at steady state and following IL-13-stimulation (100 ng/mL)): led to degradation of STAT3

dupilumab: fully human IgG4 monoclonal antibody that binds the IL4Rα chain and blocks both IL-4 and IL-13 signaling
esophageal distensibility (IL4Rα chain): increased | histologic and endoscopic severity scores (IL4Rα chain): decreased | peak esophageal eosinophil count (IL4Rα chain): reduced

O=S(=O)(NC1CCNCC1)c1cc(S(=O)(=O)c2ccccc2)ccc1C(F)(F)F [SFRP1inh]
Ki67+ EPC2-ALI cells under IL-13-stimulation (EPC2-ALI cells [2]): increase | Ki67+ EPC2-ALI cells, treatment alone (EPC2-ALI cells [2]): increase

B1: RPC4046: recombinant humanized monoclonal antibody against IL-13 (antibody, chains of the INN, looked up, V domains shown)
VH: EVTLRESGPGLVKPTQTLTLTCTLYGFSLSTSDMGVDWIRQPPGKGLEWLAHIWWDDVKRYNPALKSRLTISKDTSKNQVVLKLTSVDPVDTATYYCARTVSSGYIYYAMDYWGQGTLVTVSS
VL: DIQMTQSPSSLSASVGDRVTISCRASQDIRNYLNWYQQKPGKAPKLLIFYTSKLHSGVPSRFSGSGSGTDYTLTISSLQPEDIATYYCQQGNTLPLTFGGGTKVEIK
endoscopic, histologic and clinical improvement in long-term extension (IL-13; 52-week open-label LTE study, 360 mg/week): sustained endoscopic, histologic and clinical improvement | histologic and endoscopic outcomes (IL-13; adult EoE patients): improves

B2: rSFRP1: recombinant secreted frizzled-related protein 1, used as pharmacologic agonist (protein, UniProt Q8N474 32-314, looked up)
Secreted frizzled-related …: SEYDYVSFQSDIGPYQSGRFYTKPPQCVDIPADLRLCHNVGYKKMVLPNLLEHETMAEVKQQASSWVPLLNKNCHAGTQVFLCSLFAPVCLDRPIYPCRWLCEAVRDSCEPVMQFFGFYWPEMLKCDKFPEGDVCIAMTPPNATEASKPQGTTVCPPCDNELKSEAIIEHLCASEFALRMKIKEVKKENGDKKIVPKKKKPLKLGPIKKKDLKKLVLYLKNGADCPCHQLDNLSHHFLIMGRKVKSQYLLTAIHKWDKKNKEFKNFMKKMKNHECPTFQSVFK
Ki67+ EPC2-ALI cells under IL-13-stimulation (EPC2-ALI cells [2]): decrease | Ki67+ EPC2-ALI cells, treatment alone (EPC2-ALI cells [2]): sufficient to inhibit esophageal epithelial proliferation
